What was measured:
collagen synthesis = test: Subcutaneous stainless steel chamber implant model: collagen content measured as hydroxyproline (HYP); type: in vivo, rat
From the text: (§1) The subcutaneous implantation of stainless steel chambers in rats provides a model for studying the synthesis of extracellular matrix components (collagen and glycosaminoglycan) by providing a recoverable site of new matrix synthesis. The assay involves implanting in each rat, two cylindrical stainless steel chambers (1 cm in diameter×2.5 cm long, 312 SS, 20 mesh, with Teflon end caps), one on each side of the rats' dorsal midline. After allowing for encapsulation of the chambers, both chambers on each rat were injected with 0.2 ml of a solution containing the representative soft tissue filler or saline on day 4 after implantation, and the test peptide copper compound (or saline alone as a control) on days 6, 8, 11, 13, 15, 16, and 18. Chambers were removed from the animals on day 30 after implantation for biochemical analysis.
The chambers were lyophylized and the interior contents removed for biochemical analysis. The biochemical parameters examined include collagen content, the latter being measured as a hydroxyproline (“HYP”) content. The latter, an amino acid specific for collagen, was measured after acid hydrolysis and using a colormetric assay for HYP (see e.g., Bergman, I and Loxley, R., “The Determination of Hydroxyproline in Urine Hydrolysates,” Clin. Chim. Acta. 27: 347-349, 1970). Collagen content was expressed as μg of HYP per chamber or per milligram of protein.
(§2) In this example, hydroxypropyl methyl cellulose was used as the soft tissue filler. A dose of 6 milligrams of the hydroxypropyl methyl cellulose, as a gel, was injected into each of the chambers. Injections of saline served as controls.
(§3) Glycyl-L-histidyl-L-lysine:copper(II) (“GHK-Cu”), was used as the peptide copper complex used. The GHK-Cu was prepared at a molar ratio of 2 moles of peptide to one mole of copper(II), and dissolved in a saline solution at a concentration of 10 milligrams/milliliter. A dose of […] of GHK-Cu was injected for each day of treatment.
(§4) The stimulation of collagen and GAG synthesis by injection of various peptide copper complexes has been determined by methods described in Example 1. The peptide copper complexes used were L-alanyl-L-histidyl-L-lysine:copper(II) (“AHK-Cu”), prepared at a molar ratio of 1 mole of peptide to one mole of copper(II), and glycyl-L-histidyl-L-lysyl-L-valyl-L-phenylalanyl-L-valine:copper(II) (“GHKVFV-Cu”), prepared at a molar ratio of 2 moles of peptide to one mole of copper(II). The peptide copper complexes were dissolved in a saline solution at a concentration of 10 milligrams/milliliter. A dose of 2.4 micromoles of peptide copper complex was injected on each treatment day.
The stimulation of collagen synthesis by injection of various peptide copper complexes has been determined by methods described in Examples 1 and 2. […]

[1] = test system: glycosaminoglycan (GAG) synthesis; test: Subcutaneous stainless steel chamber implant model: glycosaminoglycan (GAG) content measured as uronic acid (UA); type: in vivo, rat
From the text: as §1
The chambers were also analyzed for glycosaminoglycan content, another component of the extracellular matrix or skin. Glycosaminoglycan (“GAG”) content was determined by quantifying the amount of uronic acid (“UA”), a carbohydrate component specific for GAGs. UA was determined by a colorimetric assay, as described using 2-hydroxydiphenyl as a reagent (see, e.g., Vilim, V., “Colorimetric Estimation of Uronic Acids using 2-hydroxydiphenyl as a Reagent,” Biomed. Biochim. Acta. 44 11/12 s: 1717-1720, 1985). GAG content was expressed as μg of UA per chamber.
as §2, §3, §4

[2] = Example 2, 2.4 micromoles of peptide copper complex per treatment day, saline control 60 ± 5
[3] = Example 3, 0.6 mg of peptide copper complex per treatment day, saline control 1838 ± 636

Substance | μg Uronic Acid/Chamber Mean ± SEM [1, 2] | μg HYP/Chamber Mean ± SEM (collagen synthesis; [3]) | other results
Glycyl-L-histidyl-L-lysine:copper(II) [GHK-Cu] |  |  | μg HYP/Chamber Mean ± SEM (collagen synthesis; Example 1, GHK-Cu 0.2 mg per treatment day in combination with soft tissue filler HPMC 6 mg on day 4, chambers removed day 30, saline control 1222 ± 111): 3423 ± 341 μg HYP/Chamber; μg HYP/Chamber Mean ± SEM (collagen synthesis; Example 1, agent alone (GHK-Cu 0.2 mg per treatment day on days 6-18, or HPMC gel 6 mg on day 4), chambers removed day 30, saline control 1222 ± 111): 4226 ± 265 μg HYP/Chamber; μg Uronic Acid/Chamber Mean ± SEM ([1]; Example 1, GHK-Cu 0.2 mg per treatment day in combination with soft tissue filler HPMC 6 mg on day 4, chambers removed day 30, saline control 46.3 ± 5.8): 88.1 ± 5.6 μg Uronic Acid/Chamber; μg Uronic Acid/Chamber Mean ± SEM ([1]; Example 1, agent alone (GHK-Cu 0.2 mg per treatment day on days 6-18, or HPMC gel 6 mg on day 4), chambers removed day 30, saline control 46.3 ± 5.8): 117.3 ± 12.9 μg Uronic Acid/Chamber
L-alanyl-L-histidyl-L-lysine:copper(II) [AHK-Cu] | 105 ± 21 μg Uronic Acid/Chamber |  | 
glycyl-L-histidyl-L-leucine methyl ester:copper(II) [GHL-Me-Cu] |  | 3357 ± 863 μg HYP/Chamber | 
glycyl-L-histidyl-L-leucine:copper(II) [GHL-Cu] |  | 3619 ± 754 μg HYP/Chamber | 
glycyl-L-histidyl-L-lysyl-L-valyl-L-phenylalanyl-L-valine:copper(II) [GHKVFV-Cu] | 79 ± 9 μg Uronic Acid/Chamber |  | 

— patent US20070110693A1, “COMPOSITIONS CONTAINING PEPTIDE COPPER COMPLEXES AND SOFT TISSUE FILLERS, AND METHODS RELATED THERETO” (PROCYTE CORPORATION, priority 2002, published 2007)
